These results are taken from ChEMBL document CHEMBL2074072, “Transport of glutathione, glucuronate, and sulfate conjugates by the MRP gene-encoded conjugate export pump” (Cancer Res, 1996).

Multidrug resistance-associated protein 1, sequence (P33527 whole entry): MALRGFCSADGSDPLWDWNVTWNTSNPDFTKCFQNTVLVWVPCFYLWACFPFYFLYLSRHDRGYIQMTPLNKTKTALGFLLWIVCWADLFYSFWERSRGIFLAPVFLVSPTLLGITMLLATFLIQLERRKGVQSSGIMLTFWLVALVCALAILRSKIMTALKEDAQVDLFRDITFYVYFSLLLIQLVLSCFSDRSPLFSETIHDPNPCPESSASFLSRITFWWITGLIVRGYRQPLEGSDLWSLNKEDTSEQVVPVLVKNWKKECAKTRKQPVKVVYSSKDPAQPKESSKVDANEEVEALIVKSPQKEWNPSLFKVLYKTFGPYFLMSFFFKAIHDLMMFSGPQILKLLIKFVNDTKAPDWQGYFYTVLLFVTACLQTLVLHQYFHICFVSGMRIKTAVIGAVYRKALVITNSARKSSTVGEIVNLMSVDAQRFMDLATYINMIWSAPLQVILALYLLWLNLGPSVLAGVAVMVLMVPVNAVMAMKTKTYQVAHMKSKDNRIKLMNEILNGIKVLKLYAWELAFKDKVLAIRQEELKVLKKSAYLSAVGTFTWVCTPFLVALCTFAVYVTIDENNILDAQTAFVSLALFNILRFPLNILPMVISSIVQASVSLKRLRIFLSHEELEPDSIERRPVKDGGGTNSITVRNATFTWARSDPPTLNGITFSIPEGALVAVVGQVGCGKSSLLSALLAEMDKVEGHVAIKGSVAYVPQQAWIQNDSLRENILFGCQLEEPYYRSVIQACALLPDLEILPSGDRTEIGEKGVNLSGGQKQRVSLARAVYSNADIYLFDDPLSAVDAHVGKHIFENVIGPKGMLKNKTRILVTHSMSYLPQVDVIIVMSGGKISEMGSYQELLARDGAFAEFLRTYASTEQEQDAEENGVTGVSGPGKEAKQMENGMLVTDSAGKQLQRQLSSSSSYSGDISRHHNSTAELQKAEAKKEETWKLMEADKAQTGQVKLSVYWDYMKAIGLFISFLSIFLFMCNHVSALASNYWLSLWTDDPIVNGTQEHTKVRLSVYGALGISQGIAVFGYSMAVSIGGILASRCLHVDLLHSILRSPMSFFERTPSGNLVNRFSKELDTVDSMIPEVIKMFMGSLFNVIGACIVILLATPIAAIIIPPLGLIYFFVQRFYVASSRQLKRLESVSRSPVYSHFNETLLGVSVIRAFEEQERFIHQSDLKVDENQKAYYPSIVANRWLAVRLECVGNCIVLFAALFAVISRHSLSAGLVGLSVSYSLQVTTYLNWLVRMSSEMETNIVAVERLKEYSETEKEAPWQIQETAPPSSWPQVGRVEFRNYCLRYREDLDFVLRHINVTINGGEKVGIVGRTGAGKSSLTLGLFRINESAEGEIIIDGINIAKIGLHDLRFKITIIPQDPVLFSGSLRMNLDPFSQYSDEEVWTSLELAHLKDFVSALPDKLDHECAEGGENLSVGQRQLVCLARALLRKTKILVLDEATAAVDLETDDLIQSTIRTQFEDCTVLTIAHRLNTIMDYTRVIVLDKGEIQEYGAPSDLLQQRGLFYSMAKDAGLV

The data set addresses Multidrug resistance-associated protein 1 (Homo sapiens, UniProt P33527). The data set can be described thus: TP_TRANSPORTER: uptake in membrane vesicle from MRP1-expressing HeLa cells. In kind it is functional, cell membranes.
For the compound `CCCCC/C=C\C\C=C/C=C/C=C/[C@@H](SC[C@H](N)C(=O)NCC(=O)O)[C@@H](O)CCCC(=O)O` [LEUKOTRIENE D4], the Activity result is “substrate [+]”. Consider `CCCCC/C=C\C\C=C/C=C/C=C/[C@@H](SC[C@H](NC(C)=O)C(=O)O)[C@@H](O)CCCC(=O)O`, for which the Activity result was “substrate [+]”. In the case of `COc1cc([C@@H]2c3cc4c(cc3[C@@H](O[C@@H]3O[C@@H]5CO[C@@H](C)O[C@H]5[C@H](O)[C@H]3O)[C@H]3COC(=O)[C@H]23)OCO4)cc(OC)c1O[C@@H]1O[C@H](C(=O)O)[C@@H](O)[C@H](O)[C@H]1O` [ETOPOSIDE GLUCURONIDE], the Activity result was “substrate [+]”.

For `C[C@H](CCC(=O)O)[C@H]1CC[C@H]2[C@@H]3C[C@H](O[C@@H]4O[C@H](C(=O)O)[C@@H](O)[C@H](O)[C@H]4O)[C@@H]4C[C@H](O)CC[C@]4(C)[C@H]3CC[C@]12C` [6alpha-Glucuronosylhyodeoxycholate], the Activity entry is “substrate [+]”. Consider `CCCCC/C=C\C\C=C/C=C/C=C/[C@@H](SC[C@H](N)C(=O)O)[C@@H](O)CCCC(=O)O` [LEUKOTRIEN E4], for which the Activity entry was “substrate [+]”.
